Data published in US20080254497A1, “Response Predictors for Erbb Pathway-Specific Drugs” (MONOGRAM BIOSCIENCES, INC., priority 2004, published 2008).

Columns and labels:
[1] = system: human cell lines (head and neck, breast, and gastric); conditions: cited from earlier work
[2] = system: activation of EGFR, erbB2, Erk1/2, and Akt; conditions: treatment of tumor xenografts; cited from earlier work
[3] = system: Her receptor phosphorylation; assay: Fixed cell pellet sections, receptor phosphorylation; type: cell-based, human; conditions: 100 nM vs non-stimulated
Method: In this example, model fixed tissues made from pelleted cell lines were assayed for the presence of Her receptor dimers. The assay design for heterodimers was essentially the same as that described in FIG. 4A, with exceptions as noted below. That is, four components are employed: (i) a cleaving probe comprising a biotinylated monoclonal antibody conjugated to a cleavage-inducing moiety (in this example, a photosensitizer-derivatized streptavidin, as illustrated in FIG. 3E) and specific for one of the receptors of the dimer, (ii) a monoclonal antibody derivatized with a first molecular tag and specific for the same receptor as the cleaving probe, (iii) a monoclonal antibody derivatized with a second molecular tag and specific for the receptor opposite to that the cleaving probe is specific for, and (iv) a monoclonal antibody derivatized with a third molecular tag and specific for an intracellular phosphorylated tyrosine. The assay design for homodimers was essentially the same as that described in FIG. 1D, with exceptions as noted below.
In each case, model fixed tissues were prepared as follows: cells grown on tissue culture plates were stimulated with either EGF or HRG as described in the prior examples, after which they were washed and removed by scrapping. […]

Her1 phosphorylation = assay: Releasable molecular tag assay of cell lysates for Her1 phosphorylation; type: cell-based, human; conditions: BT-20 cells, increasing ligand concentration, FIG. 6B
Method: Sample preparation was carried out essentially as described in Example 2.
Assay design: A monoclonal antibody specific to the receptor is separately conjugated with either a molecular tag or biotin (that is then linked to a photosensitizer via an avidin bridge), so that the cleaving probe and a binding compound compete to bind to the same epitope in this example. Another binding compound is used that consists of a second antibody recognizing an overlapping epitope on the receptor, so that a ratiometric signal can be generated as a measure of homodimerization. The signal derived from the second antibody also provides a measure of the total amount of receptor in a sample. The total amount of receptor is determined in a separate assay well. Receptor phosphorylation can be quantified together with either homodimerization or total receptor amount.
The assay volume is 40 ul and the general procedure is similar to that of Example 2. Two assay wells, A and B, are set up for each sample to quantify homodimerization and total amount of receptor separately.
• Pro10_anti-Her-1: 0.05-0.1 ug/ml • Pro2_anti-phospho-Tyr: 0.1 ug/ml • Biotin_anti-Her-1: 1-2 ug/ml
7.5.2 Data Analysis: • 1. Normalize RFU signal of each molecular tag against CE reference standard A315. • 2. Subtract RFU of “no lysate” background control from corresponding molecular tag signals. • 3. […]

Her2-Her3 heterodimers = biological target: T1, Her2-Her3 heterodimers (Homo sapiens, UniProt P21860); assay: Releasable molecular tag assay of cell lysates for Her2-Her3 heterodimers; type: cell-based; conditions: MCF-7 cells, increasing ligand concentrations, 10 minutes at 37° C., FIG. 4C
T1 construct: endogenous in cells; host or cells: MCF-7
Method: Measurements are made using three binding compounds and a cleaving probe as described below.
7.3.1 Sample Preparation: • 1. Serum-starve breast cancer cell line culture overnight before use. • 2. […] Aspirate culture media, transfer onto ice, and add lysis buffer to lyse cells in situ. • 4. Scrape and transfer lysate to microfuge tube. Incubate on ice for 30 min. Microfuge at 14,000 rpm, 4° C., for 10 min. (Centrifugation is optional.) • 5. Collect supernatants as lysates and aliquot for storage at −80° C. until use.
Assay design: As illustrated diagrammatically in FIG. 4A, Her2-Her3 heterodimers (900) are quantified ratiometrically based on the binding of cleaving probe (902) and binding compounds (904), (906), and (908). A photosensitizer indicated by “PS” is attached to cleaving probe (902) via an avidin-biotin linkage, and binding compounds (904), (906), and (908) are labeled with molecular tags Pro14, Pro10, and Pro11, respectively. Binding compound (904) is specific for a phosphorylation site on Her3.
The total assay volume is 40 ul. The lysate volume is adjusted to 30 ul with lysis buffer. […]
7.3.3 Data Analysis: • 1. Normalize relative fluorescence units (RFU) signal of each molecular tag against CE reference standard A315 (a fluorescein-derivatized deoxyadenosine monophosphate that has known peak position relative to molecular tags from the assay upon electrophoretic separation). • 2. […]

Row | Compound | IC90, growth inhibition of human cell lines ([1]; head and neck, breast, and gastric cell lines in vitro) | outgrowth following cessation of treatment ([1]; up to 18 days following cessation of treatment) | activation of EGFR, erbB2, Erk1/2, and Akt in tumor xenografts [2] | Her receptor phosphorylation ([3]; fixed pellets of 22Rv1 cells, FIG. 15D) | intracellular phosphorylation ([3]; fixed pellets of MDA-MB-468 cells, FIG. 15A) | quantity of Her1 phosphorylation (Her1 phosphorylation) | quantity of Her2-Her3 heterodimers (Her2-Her3 heterodimers)
1 | CS(=O)(=O)CCNCc1ccc(-c2ccc3ncnc(Nc4ccc(OCc5cccc(F)c5)c(Cl)c4)c3c2)o1 [GW572016] | < 1313 ng/mL | no outgrowth observed | inhibition |  |  |  | 
2 | EGF: epidermal growth factor, peptide that binds to the cell-surface EGFR; used to stimulate cell lines |  |  |  | up-regulation | increases | increases | essentially no change
